Measured values taken from patent US12414932B2, “Arsinothricin and methods of treating infections using arsinothricin” (priority 2018, dated 2025).
Where two headings read alike, the source gives them in different places.

Columns and labels:
E. coli AW3110 = experiment: microbe, parasite or virus in culture; format: cell-based, Escherichia coli; conditions: for IC50: read-out: concentration giving 50% inhibition
Mycobacterium bovis BCG = format: cell-based
PpArsN1 = PpArsN1 (Pseudomonas putida, UniProt Q88LK7); conditions: for PpArsN1 Specific activity: Substrate 50 μM, 37° C.
P. putida Aars1,2 = experiment: microbe, parasite or virus in culture; format: cell-based, Pseudomonas putida; conditions: for IC50: read-out: concentration giving 50% inhibition
[1] = target: phosphinothricin N-acetyltransferase (SvPAT) (Streptomyces viridochromogenes, UniProt Q57146); experiment: N-acetyltransferase assay (DTNB) with SvPAT; format: biochemical, Streptomyces viridochromeogenes; conditions: as substrate of PAT (SvPAT)
[2] = target: glutamine synthetase (GS) from E. coli (Escherichia coli, UniProt P0A9C5); experiment: biochemical
Chain of glutamine synthetase (GS) from E. coli (P0A9C5 2-469): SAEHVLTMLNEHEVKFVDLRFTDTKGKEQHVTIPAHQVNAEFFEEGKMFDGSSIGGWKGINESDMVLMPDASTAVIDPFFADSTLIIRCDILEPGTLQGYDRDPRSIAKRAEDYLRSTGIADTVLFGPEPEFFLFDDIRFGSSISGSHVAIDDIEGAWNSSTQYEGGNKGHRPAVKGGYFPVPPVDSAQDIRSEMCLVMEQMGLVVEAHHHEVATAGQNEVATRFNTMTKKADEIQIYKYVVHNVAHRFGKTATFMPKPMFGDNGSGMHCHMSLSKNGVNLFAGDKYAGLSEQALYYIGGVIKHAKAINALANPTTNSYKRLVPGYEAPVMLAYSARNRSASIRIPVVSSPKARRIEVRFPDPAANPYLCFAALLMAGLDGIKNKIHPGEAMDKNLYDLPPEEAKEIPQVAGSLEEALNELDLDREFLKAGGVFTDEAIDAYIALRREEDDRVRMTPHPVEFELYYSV

Chain of phosphinothricin N-acetyltransferase (SvPAT) (Q57146 whole entry, looked up): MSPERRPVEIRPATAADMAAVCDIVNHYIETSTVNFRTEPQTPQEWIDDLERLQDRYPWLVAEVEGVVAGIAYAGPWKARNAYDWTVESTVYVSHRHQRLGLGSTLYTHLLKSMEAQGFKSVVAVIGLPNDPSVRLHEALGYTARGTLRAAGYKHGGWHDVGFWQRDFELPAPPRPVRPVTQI
Chain of PpArsN1 (Q88LK7 1-186): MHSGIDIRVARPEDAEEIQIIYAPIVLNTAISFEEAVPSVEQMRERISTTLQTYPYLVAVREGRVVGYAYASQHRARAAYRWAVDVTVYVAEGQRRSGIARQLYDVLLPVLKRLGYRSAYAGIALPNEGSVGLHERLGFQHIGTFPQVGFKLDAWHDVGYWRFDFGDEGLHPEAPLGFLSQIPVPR

Row | Compound | concentration giving nearly complete inhibition (E. coli AW3110) [µM] | effectiveness as an antibiotic compared with PT (E. coli AW3110) | toxicity (growth inhibition) compared with As(III) and MAs(III) (E. coli AW3110) | IC50 (E. coli AW3110) [nM] | cytotoxicity in human monocytes (THP-1 cells) | inhibitory effect on mycobacterial growth (Mycobacterium bovis BCG) | affinity of PpArsN1 compared with PT (PpArsN1) [fold] | PpArsN1 Specific activity (PpArsN1) [nmol/s/mg] | Kcat (PpArsN1; as substrate of PpArsN1) [s⁻¹] | Km (PpArsN1; as substrate of PpArsN1) [µM] | concentration giving nearly complete inhibition (P. putida Aars1,2) [µM] | effectiveness as an antibiotic compared with PT (P. putida Aars1,2) | IC50 (P. putida Aars1,2) [nM] | Kcat [1] [s⁻¹] | Km [1] [µM] | substrate quality for PpArsN1 (PpArsN1) | IC50 (E. coli AW3110; Escherichia coli, AW3110, 24 h) [nM] | Ki [2] [nM] | IC50 (P. putida Aars1,2; Pseudomonas putida, 24 h) [nM]
1 | C[As](=O)(O)CC[C@H](N)C(=O)O [AST, 2-amino-4-(hydroxymethylarsinoyl) butanoate] | 20 | approximately 30 fold | considerably more inhibitory than inorganic As (III) and is similar to that of highly toxic trivalent methylarsenite (MAs(III)) | ~3000 | benign and much less toxic compared to inorganic arsenite | comparable with MSO and much higher than PT | 100 | 49.6 ± 0.8 | 1.7 ± 0.2 | 11 ± 3 | 20 | approximately 30 fold | ~3000 | 2.3 ± 0.1 | 12 ± 2 | – | – | – | –
2 | methionine sulfoximine [MSO, reference compound] | – | – | – | – | – | – | – | 2.1 ± 0.1 | – | – | – | – | – | – | – | poor substrate | – | – | –
3 | CP(=O)(O)CCC(N)C(=O)O (racemic) [PT, phosphinothricin, reference compound] | – | – | – | – | – | – | – | 13.9 ± 1.9 | – | – | – | – | – | 3.1 ± 0.0 | – | – | 100000 | 400 ± 150 | 100000
